Experimental data published in US20240156800A1, “EP300 DEGRADER AND USES THEREOF IN NEUROBLASTOMA” (DANA-FARBER CANCER INSTITUTE, INC., priority 2021, published 2024).

Assays:
H3K27ac = H3K27ac ChIP-seq with Drosophila spike-in (ChIP-RX) in Kelly cells; assay type: cell-based, human; settings: 500 nM
Description: ChIP-seq was performed as previously described for cell lines (Durbin et al. Nat. Genet. 50:1240-6 (2018)). The following antibodies were used for ChIP: EP300 (Abcam, ab10485), CBP (#7389, Cell Signaling Technology®), TFAP2β (#2509, Cell Signaling Technology®), ASCL1 (sc-374104, Santa Cruz Biotechnology) and H3K27ac (Abcam ab4729). For each ChIP, 10 μg of antibody was added to 3 ml of sonicated nuclear extract. Illumina® sequencing, library construction, and ChIP-seq analysis methods were performed as described in Mansour et al. Science 346, 1373-7 (2014) and Sanda et al. Cancer Cell 22:209-21 (2012). Remaining ChIP-seq and assay for transposase-accessible chromatin (ATAC)-sequencing data were extracted from previously published datasets (GSE120074, GSE94822, GSE65664) available through the GEO portal. For experiments involving analysis of quantitative changes in H3K27ac, pellets of neuroblastoma cells were externally spiked in with similarly fixed and processed S2 cells at 1:10 ratio, prior to sonication.
ChIP-RX reads from Kelly cells treated with 500 nM JQAD1 were aligned in multiple steps. Reads were aligned to the dm6 revision of the D. melanogaster reference genome with -k 1 —chunkmbs 256—best to identify spiked-in DNA. Counts of fly reads were determined by counting unique read names in the aligned read file. Remaining non-fly reads were aligned to the hg19 revision of the human reference genome with parameters -k 2 -m 2 -chunkmbs 256 -best -175. Visualization files were constructed using macs 1.4 with parameters -w -S -space=50 -nomodel -shiftsize=200 to generate wiggle files, which were subsequently normalized by the millions of fly-mapped reads in the corresponding sample.
H3K27ac ChIP-RX read coverage of stitched enhancers was quantified using bamToGFF with parameter -t TRUE and divided by the millions of mapped reads, from which read-per-million values from the corresponding input experiment was subtracted. These values were used to create fold-changes during the treatment time-course.

BE2C-CRBN cells = experiment: Cell-Titer Glo growth of BE2C cells overexpressing CRBN or zsGreen; assay type: cell-based, human; settings: 10 μM, 6 days
Description: Cells were infected with lentiviruses encoding sgRNAs or treated with compounds as described. Colony assays were performed by replating cells at 500 cells per well in 6-well dishes and grown in regular growth media for 10 d before 100% methanol fixation, 0.05% crystal violet staining, and quantitation. Experiments were completed in triplicate; data shown are the average of three independent experiments. Cell Titer-Glo® assay was performed as per the manufacturer's instructions (Promega®). Briefly, 1000 cells/well were plated into 96-well plates and treated with a range of compound dosing. Cell viability was measured at the noted time points based on luminescence by the Cell Titer-Glo® assay (Promega®) and read on an Envision 2104 (PerkinElmer®, USA) according to the manufacturer's protocol.
sgRNAs targeting individual genes were subcloned by standard methodologies within pLKO.5-EFGP. Kelly, SIMA, BE2C, and NGP cells were infected with lenticas9 followed by blasticidin selection. Stable expression of cas9 was established by western blotting of protein lysates using cas9 antibody (Cell Signaling Technology®). Following infection of pLKO.5-EGFP-sgRNA lentivirus, cells were cultured for the identified times prior to evaluation. BE2C cells were infected with pLC-zsgreen or pLC-CRBN lentiviruses and selected using 500 μg/mL hygromycin (Invitrogen™)

CBP = target: T1, CBP (Homo sapiens, UniProt Q92793); experiment: Western blotting of CBP in treated NB cells; assay type: cell-based
T1 construct: Cells growing in culture were lysed for whole cell lysates; endogenous in cells; host or cells: Kelly, NGP, SIMA, BE2C neuroblastoma cells; Kelly xenografts in NSG mice
T1 sequence (Q92793 whole entry): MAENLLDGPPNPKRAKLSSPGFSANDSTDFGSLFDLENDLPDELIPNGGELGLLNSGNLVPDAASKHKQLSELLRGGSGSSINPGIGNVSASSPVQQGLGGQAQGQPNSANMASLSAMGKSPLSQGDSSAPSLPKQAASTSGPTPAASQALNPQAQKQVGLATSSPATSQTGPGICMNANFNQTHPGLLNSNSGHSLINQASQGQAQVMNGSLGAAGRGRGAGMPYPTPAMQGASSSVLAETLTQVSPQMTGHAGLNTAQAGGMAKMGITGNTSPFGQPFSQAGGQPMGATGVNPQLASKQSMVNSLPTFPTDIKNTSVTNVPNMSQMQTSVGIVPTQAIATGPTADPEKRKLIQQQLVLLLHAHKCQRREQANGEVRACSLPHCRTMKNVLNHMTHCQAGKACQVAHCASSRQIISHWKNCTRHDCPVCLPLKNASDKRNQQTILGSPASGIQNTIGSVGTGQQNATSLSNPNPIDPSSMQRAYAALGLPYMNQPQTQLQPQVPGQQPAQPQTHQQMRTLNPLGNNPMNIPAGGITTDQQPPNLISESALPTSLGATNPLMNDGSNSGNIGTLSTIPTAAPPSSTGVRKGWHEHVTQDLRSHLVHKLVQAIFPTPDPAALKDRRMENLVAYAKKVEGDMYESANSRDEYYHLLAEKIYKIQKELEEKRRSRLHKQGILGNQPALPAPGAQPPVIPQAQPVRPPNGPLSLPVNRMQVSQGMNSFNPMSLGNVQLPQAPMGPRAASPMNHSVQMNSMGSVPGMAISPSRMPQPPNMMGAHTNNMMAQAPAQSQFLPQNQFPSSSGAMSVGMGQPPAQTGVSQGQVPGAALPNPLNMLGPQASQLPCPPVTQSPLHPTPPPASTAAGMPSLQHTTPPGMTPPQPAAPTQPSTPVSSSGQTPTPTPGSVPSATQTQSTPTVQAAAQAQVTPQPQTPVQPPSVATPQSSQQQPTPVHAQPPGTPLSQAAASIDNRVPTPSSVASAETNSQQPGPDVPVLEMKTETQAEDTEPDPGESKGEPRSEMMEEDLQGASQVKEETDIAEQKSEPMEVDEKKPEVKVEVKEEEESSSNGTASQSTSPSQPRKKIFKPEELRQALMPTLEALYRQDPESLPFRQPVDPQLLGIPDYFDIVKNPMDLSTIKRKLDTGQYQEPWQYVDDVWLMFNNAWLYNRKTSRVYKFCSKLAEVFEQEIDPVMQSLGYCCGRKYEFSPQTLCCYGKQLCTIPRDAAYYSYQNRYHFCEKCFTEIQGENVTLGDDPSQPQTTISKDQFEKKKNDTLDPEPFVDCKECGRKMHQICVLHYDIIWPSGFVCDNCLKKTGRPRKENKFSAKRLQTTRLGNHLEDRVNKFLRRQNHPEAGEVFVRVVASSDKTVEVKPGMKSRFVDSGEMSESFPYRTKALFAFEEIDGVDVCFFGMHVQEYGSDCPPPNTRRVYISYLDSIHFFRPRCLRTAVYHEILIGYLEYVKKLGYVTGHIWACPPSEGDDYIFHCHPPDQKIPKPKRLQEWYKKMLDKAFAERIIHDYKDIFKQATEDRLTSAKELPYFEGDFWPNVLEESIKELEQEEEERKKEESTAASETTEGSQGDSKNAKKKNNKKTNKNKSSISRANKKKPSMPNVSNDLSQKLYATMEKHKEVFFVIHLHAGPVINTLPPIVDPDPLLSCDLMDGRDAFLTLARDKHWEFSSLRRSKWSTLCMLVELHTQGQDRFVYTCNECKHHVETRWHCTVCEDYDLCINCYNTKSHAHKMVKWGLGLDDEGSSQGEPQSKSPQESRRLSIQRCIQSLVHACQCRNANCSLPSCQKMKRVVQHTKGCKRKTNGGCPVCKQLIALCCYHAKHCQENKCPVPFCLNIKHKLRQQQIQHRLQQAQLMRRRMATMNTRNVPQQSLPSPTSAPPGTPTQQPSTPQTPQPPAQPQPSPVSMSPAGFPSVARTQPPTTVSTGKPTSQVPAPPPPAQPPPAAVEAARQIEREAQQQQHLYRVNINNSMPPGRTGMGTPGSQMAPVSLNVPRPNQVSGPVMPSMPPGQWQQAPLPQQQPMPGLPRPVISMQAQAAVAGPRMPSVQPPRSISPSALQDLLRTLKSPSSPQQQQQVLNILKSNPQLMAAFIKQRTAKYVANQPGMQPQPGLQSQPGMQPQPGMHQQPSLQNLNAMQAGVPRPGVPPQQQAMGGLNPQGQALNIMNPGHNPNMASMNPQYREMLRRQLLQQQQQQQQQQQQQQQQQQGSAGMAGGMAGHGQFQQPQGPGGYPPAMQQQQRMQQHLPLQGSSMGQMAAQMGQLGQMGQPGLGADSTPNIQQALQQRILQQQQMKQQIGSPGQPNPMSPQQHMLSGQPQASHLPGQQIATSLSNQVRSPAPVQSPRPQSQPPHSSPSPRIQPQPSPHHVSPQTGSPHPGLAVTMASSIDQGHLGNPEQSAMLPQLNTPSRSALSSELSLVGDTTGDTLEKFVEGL
Description: Cells growing in culture were lysed for whole cell lysates as described in Durbin et al. Nat. Genet. 50:1240-1246 (2018) and Wang et al. Nat. Commun. 10:5622 (2019). Nuclear lysates were prepared using the NE-PER® nuclear lysate kit (Thermo Scientific™) according to the manufacturer's protocol. Chromatin lysates were prepared with the total histone extraction kit (Epigentek). Briefly, equivalent amounts of protein were resolved by western blotting using 4-12% Bis-Tris NuPAGE™ gels (Thermo-Fisher Scientific) prior to transfer, and immunoblotting using primary antibodies to: MYCN (1:1000, Cell Signaling Technology®), H3K27ac (1:1000, Abcam), total H3 (1:1000, Cell Signaling Technology®), EP300 (1:1000, Abcam), CBP (1:500, Cell Signaling Technology®), Cas9 (1:1000, Cell Signaling Technology®), cleaved-PARP1 (1:1000, Cell Signaling Technology), cleaved Caspase-3 (1:1000, Cell Signaling Technology®), β-actin (1:1000, Cell Signaling Technology®), GATA3 (1:1000, EMD Millipore™), TFAP2β (1:1000, Cell Signaling Technology®), Vinculin (1:1000, EMD Millipore™), CRBN (1:1000, Cell Signaling Technology®), HAND2 (1:1000, Santa Cruz Biotechnology). Secondary antibodies were horseradish peroxidase (HRP)-conjugated anti-rabbit or anti-mouse (1:5000, Santa Cruz Biotechnology), incubated prior to exposure to enhanced chemiluminescence reagents (GE, Amersham). For immunoprecipitation, equal amounts of protein were diluted in buffer C as described in Mansour et al. Science 346:1373-1377 (2014) and incubated with antibodies covalently conjugated to Dynabeads™ M-270 beads (Thermo-Fisher Scientific) overnight according to the manufacturer's directions. Antibodies used included: H3K27ac, EP300 (Abcam), CBP, TFAP2β (Cell Signaling Technology®), rabbit immunoglobulin G (IgG) (Santa Cruz Biotechnology®). Immunoprecipitated protein was isolated as per the manufacturer's directions and subjected to western blotting, as described above, or mass spectrometry.

SMILES: C[C@H](N(Cc1ccc(F)cc1)C(=O)CN1C(=O)O[C@@]2(CCc3cc(NC(=O)CCCCCCCCCCCNc4ccc5c(c4)C(=O)N(C4CCC(=O)NC4=O)C5=O)ccc32)C1=O)C(F)(F)F (stereo partly drawn) [JQAD1, 12-((2-(2,6-dioxopiperidin-3-yl)-1,3-dioxoisoindolin-5-yl)amino)-N-((R)-3′-(2-((4-fluorobenzyl)((S)-1,1,1-trifluoropropan-2-yl)amino)-2-oxoethyl)-2′,4′-dioxo-2,3-dihydrospiro[indene-1,5′-oxazolidin]-5-yl)dodecanamide]
- H3K27ac signal at 6 h versus 0 h (H3K27ac; 6 h): no consistent change in acetylation
- H3K27ac signal genome-wide at 24 h (H3K27ac; 24 h): general loss of H3K27ac signal genome-wide, which was most pronounced at densely acetylated super-enhancers
- global suppression of all enhancers (H3K27ac marked sites) (H3K27ac; 24 h versus untreated): approximately 2 fold
- growth of BE2C-CRBN cells (BE2C-CRBN cells): suppressed
- CBP expression levels (CBP; Kelly cells, 24 h): neither compound had significant effects on expression levels of CBP
- CBP detection at 24 h (CBP; Kelly, NGP and SIMA cells, 24 h): could still be detected
- CBP expression with extended treatment (CBP; Kelly, NGP and SIMA cells, extended treatment): loss of CBP expression was observed
